Results published in patent US20240287138A1, “CYCLIC PEPTIDES FOR INHIBITING TNF RECEPTOR 1 ACTIVITY” (Merck Sharp & Dohme LLC, priority 2023, published 2024).
pIC50, pKd: −log10 of the molar value. Numbered stars: 1 amine (or outer) side, 2 acyl side, 3 side chain; on linkers, the order of the positions; unused ones are H or OH. Bridge positions count the residues as written; N and C are the ends. Square brackets hold non-standard residues; d marks the D form. Peptide text beside a SMILES is read from it. Trp(βS-Me,7-OMe) = COc1cccc2c([C@H](C)[C@H](N)C(=O)O)c[nH]c12; X24 = O=C(O)c1ccc([C@@H](O)[C@H](N[*:1])C(=O)[*:2])cc1; Trp(7-CN) = N#Cc1cccc2c(C[C@H](N)C(=O)O)c[nH]c12; Trp(7-Cl) = N[C@@H](Cc1c[nH]c2c(Cl)cccc12)C(=O)O; Phe(3-CONH2) = NC(=O)c1cccc(C[C@H](N)C(=O)O)c1; Phe(4-CONH2) = NC(=O)c1ccc(C[C@H](N)C(=O)O)cc1; Phe(4-COOH) = N[C@@H](Cc1ccc(C(=O)O)cc1)C(=O)O; Trp(7-aza) = N[C@@H](Cc1c[nH]c2ncccc12)C(=O)O; Phe(4-CH2NH2) = NCc1ccc(C[C@H](N)C(=O)O)cc1; Pip(5R-OH) = O=C(O)[C@@H]1CC[C@@H](O)CN1; αMeW = C[C@](N)(Cc1c[nH]c2ccccc12)C(=O)O; X1 = O=C([C@@H]1CC[C@H](N[*:1])C1)[*:2]; Pip(4-aza) = O=C(O)[C@@H]1CNCCN1; 4Pal = N[C@@H](Cc1ccncc1)C(=O)O; NMeE = CN[C@@H](CCC(=O)O)C(=O)O; dHyp = O=C(O)[C@H]1C[C@H](O)CN1; aThr = C[C@H](O)[C@H](N)C(=O)O; Ahp(2) = CCCCC[C@H](N)C(=O)O; αMeS = C[C@](N)(CO)C(=O)O; Nle = CCCC[C@H](N)C(=O)O; Sar = CNCC(=O)O

Assays:
[1] = target: T1, TNFα-induced NF-κB signal transduction pathway (TNFR1 signaling) in THP-1 cells (Homo sapiens, UniProt P19438); assay: THP-1 Lucia NF-κB reporter cell assay, inhibition of TNFα-induced NF-κB signaling; type: cell-based; settings: THP-1 NF-κB Lucia reporter cells, 10 ng/mL TNFα, 16-18 h, secreted luciferase; read-out: THP-1 IC50
T1 sequence (P19438 30-455): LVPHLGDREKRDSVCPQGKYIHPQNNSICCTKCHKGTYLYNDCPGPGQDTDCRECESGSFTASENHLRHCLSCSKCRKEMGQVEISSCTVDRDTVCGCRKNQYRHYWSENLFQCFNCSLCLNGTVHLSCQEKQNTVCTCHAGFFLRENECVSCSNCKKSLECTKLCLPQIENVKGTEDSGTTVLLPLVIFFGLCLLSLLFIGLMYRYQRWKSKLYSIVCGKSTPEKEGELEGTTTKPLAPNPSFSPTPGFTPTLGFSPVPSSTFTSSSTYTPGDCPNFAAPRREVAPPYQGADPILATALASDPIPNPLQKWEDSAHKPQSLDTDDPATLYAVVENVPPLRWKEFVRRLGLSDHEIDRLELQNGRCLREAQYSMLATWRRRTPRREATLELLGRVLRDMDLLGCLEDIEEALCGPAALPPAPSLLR
Method in brief: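 THP-1 Lucia NF-κB cells, 20k/well, no selection antibiotics; peptide pre-inc 1 h 37 °C; + recombinant human TNFα 10 ng/mL final; o.n.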

[2] = target: T2, human TNFR1 extracellular domain (ECD) protein (Homo sapiens, UniProt P19438); assay: SPR binding affinity to captured human TNFR1 ECD
T2 construct: HRV 3C protease cleavage site (C); 6His (C, cleaved yes); made in house; host or cells: Sf21 insect cells (baculovirus), secreted
T2 sequence (P19438 30-211): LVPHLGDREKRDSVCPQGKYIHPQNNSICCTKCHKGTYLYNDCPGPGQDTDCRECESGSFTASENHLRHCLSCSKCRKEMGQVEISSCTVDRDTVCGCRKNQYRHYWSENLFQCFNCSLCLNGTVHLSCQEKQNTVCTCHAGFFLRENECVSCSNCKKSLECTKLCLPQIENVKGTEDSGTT
Method in brief: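 SPR kinetics: peptides over captured avi-biotinylated receptor ECDs, TNFR1 for affinity, TNFR2 run in parallel for off-target binding. Running buffer HEPES pH 7.4 with 150 mM NaCl, 3 mM EDTA, 0.05% P20, 2% DMSO; surface regenerated between analytes. Affinity derived from kon/koff.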

Question: `CCCC[C@@H]1NC(=O)[C@@H]2CC[C@@H](C2)NC(=O)[C@H]([C@@H](C)c2c[nH]c3c(OC)cccc23)NC(=O)CN(C)C(=O)[C@H](Cc2ccc(C(=O)O)cc2)NC(=O)[C@H](Cc2ccc(C(N)=O)cc2)NC(=O)[C@](C)(CO)NC(=O)[C@H](Cc2c[nH]c3c(Cl)cccc23)NC(=O)[C@H](Cc2ccncc2)NC(=O)[C@H]([C@H](C)O)NC(=O)[C@H]2C[C@H](O)CN2C(=O)[C@H](Cc2c[nH]c3ccccc23)NC(=O)[C@@H]2CC[C@@H](O)CN2C(=O)[C@H](Cc2ccncc2)NC1=O` [SEQ ID NO. 187] (cyclo([4Pal][Trp(7-Cl)][αMeS][Phe(4-CONH2)][Phe(4-COOH)][Sar][Trp(βS-Me,7-OMe)][X1][Nle][4Pal][Pip(5R-OH)]W[dHyp][aThr])) was tested. Which pIC50 [1] did it give?
Answer: 9.30

Question: What about the pKd [2] of the same molecule?
Answer: 10.40

Question: `CCCC[C@@H]1NC(=O)[C@@H]2CC[C@@H](C2)NC(=O)[C@H]([C@@H](C)c2c[nH]c3c(OC)cccc23)NC(=O)CN(C)C(=O)[C@H]([C@H](O)c2ccc(C(=O)O)cc2)NC(=O)[C@H](Cc2ccc(C(N)=O)cc2)NC(=O)[C@](C)(CO)NC(=O)[C@H](Cc2c[nH]c3c(Cl)cccc23)NC(=O)[C@H](Cc2ccncc2)NC(=O)[C@H](CC(N)=O)NC(=O)[C@H]2C[C@H](O)CN2C(=O)[C@H](Cc2c[nH]c3ccccc23)NC(=O)[C@@H]2CC[C@@H](O)CN2C(=O)[C@H](Cc2ccncc2)NC1=O` [SEQ ID NO. 188] (cyclo([4Pal][Trp(7-Cl)][αMeS][Phe(4-CONH2)][X24][Sar][Trp(βS-Me,7-OMe)][X1][Nle][4Pal][Pip(5R-OH)]W[dHyp]N)) was tested. Which pIC50 [1] did it give?
Answer: 9.10

Question: And the pKd [2]?
Answer: 10.52

Question: Which results are given for `CCCC[C@@H]1NC(=O)[C@@H]2CC[C@@H](C2)NC(=O)[C@H]([C@@H](C)c2c[nH]c3c(OC)cccc23)NC(=O)CN(C)C(=O)[C@H](Cc2ccc(C(N)=O)cc2)NC(=O)[C@H](Cc2ccc(C(N)=O)cc2)NC(=O)[C@](C)(CO)NC(=O)[C@H](Cc2c[nH]c3c(Cl)cccc23)NC(=O)[C@H](Cc2ccncc2)NC(=O)[C@H](CC(N)=O)NC(=O)[C@H](CCC(=O)O)N(C)C(=O)[C@H](Cc2c[nH]c3ncccc23)NC(=O)[C@@H]2CC[C@@H](O)CN2C(=O)[C@H](Cc2ccncc2)NC1=O` [SEQ ID NO. 189] (cyclo([4Pal][Trp(7-Cl)][αMeS][Phe(4-CONH2)][Phe(4-CONH2)][Sar][Trp(βS-Me,7-OMe)][X1][Nle][4Pal][Pip(5R-OH)][Trp(7-aza)][NMeE]N))?
Answer: pIC50 [1]: 9.22; pKd [2]: 10.00

Question: How did the pIC50 [1] turn out when `CCCCC[C@@H]1NC(=O)[C@@H]2CC[C@@H](C2)NC(=O)[C@H]([C@@H](C)c2c[nH]c3c(OC)cccc23)NC(=O)CN(C)C(=O)[C@H](Cc2ccc(OC)cc2)NC(=O)[C@H](Cc2ccc(C(N)=O)cc2)NC(=O)[C@](C)(CO)NC(=O)[C@H](Cc2c[nH]c3c(C#N)cccc23)NC(=O)[C@H](Cc2ccncc2)NC(=O)[C@H](CC(N)=O)NC(=O)[C@H]2C[C@H](O)CN2C(=O)[C@H](Cc2c[nH]c3ccccc23)NC(=O)[C@@H]2CNCCN2C(=O)[C@H](Cc2ccncc2)NC1=O` [SEQ ID NO. 200] (cyclo([4Pal][Trp(7-CN)][αMeS][Phe(4-CONH2)]Y(Me)[Sar][Trp(βS-Me,7-OMe)][X1][Ahp(2)][4Pal][Pip(4-aza)]W[dHyp]N)) was run?
Answer: 9.00

Question: What about the pKd [2] of the same molecule?
Answer: 10.70

Question: `CCCC[C@@H]1NC(=O)CSC[C@@H](C(N)=O)NC(=O)[C@H]([C@@H](C)c2c[nH]c3c(OC)cccc23)NC(=O)CN(C)C(=O)[C@H](Cc2ccc(O)cc2)NC(=O)[C@H](Cc2ccc(C(=O)O)cc2)NC(=O)[C@](C)(CO)NC(=O)[C@H](Cc2c[nH]c3c(Cl)cccc23)NC(=O)[C@H](Cc2ccncc2)NC(=O)[C@H](CC(N)=O)NC(=O)[C@H]2CCCN2C(=O)[C@H](Cc2c[nH]c3ccccc23)NC(=O)[C@@H]2CC[C@@H](O)CN2C(=O)[C@H](Cc2ccncc2)NC1=O` [SEQ ID NO. 203] ({CH2CO}-[Nle][4Pal][Pip(5R-OH)]W[dP]N[4Pal][Trp(7-Cl)][αMeS][Phe(4-COOH)]Y[Sar][Trp(βS-Me,7-OMe)]C-NH2; thioether N-14) was tested. Which pIC50 [1] did it give?
Answer: 8.80

Question: What about the pKd [2] of the same molecule?
Answer: 10.00

Question: What does the source list for `CCCC[C@@H]1NC(=O)CSC[C@@H](C(N)=O)NC(=O)[C@](C)(Cc2c[nH]c3ccccc23)NC(=O)CN(C)C(=O)[C@H](Cc2ccc(O)cc2)NC(=O)[C@H](Cc2cccc(C(N)=O)c2)NC(=O)[C@](C)(CO)NC(=O)[C@H](Cc2c[nH]c3c(Cl)cccc23)NC(=O)[C@H](Cc2ccncc2)NC(=O)[C@H](CC(N)=O)NC(=O)[C@H](CCC(=O)O)N(C)C(=O)[C@H](Cc2c[nH]c3ncccc23)NC(=O)[C@H](CO)NC(=O)[C@H](Cc2ccc(CN)cc2)NC1=O` [SEQ ID NO. 205] ({CH2CO}-[Nle][Phe(4-CH2NH2)]S[Trp(7-aza)][NMeE]N[4Pal][Trp(7-Cl)][αMeS][Phe(3-CONH2)]Y[Sar][αMeW]C-NH2; thioether N-14)?
Answer: pIC50 [1]: 8.14; pKd [2]: 9.22
